Reference: patent US10258697B2, “Efficient delivery of therapeutic molecules in vitro and in vivo” (Massachusetts Eye and Ear Infirmary, priority 2014, dated 2019)
No end group written: not given here.

Tests used:
[1] = tested on: cochlear hair cells of Rosa-tdTomato f/f (floxP-tdTomato) mice; test: Supercharged GFP-Cre delivery to hair cells of tdTomato reporter mouse cochlea in vivo; conditions: for hair cells tdT-labeled: near the injection site (base turn of cochlea)
Procedure: FIGS. 10A and 10B show the in vivo delivery of Cre recombinase to hair cells in the mouse inner ear. FIG. 10A: The scala media (cochlear duct) of P0 floxP-tdTomato mice (n=4) were injected with 0.3 μL of 23 μM (−30)GFP-Cre in 50% RNAiMAX or with RNAiMAX alone (control). After 5 days, tdTomato expression indicative of Cre-mediated recombination was visualized using immunohistology. Red=tdTomato; green=Myo7a; white=Sox2; blue=DAPI. Yellow brackets indicate the outer hair cell (OHC) region. […] Red=tdTomato; green=Esp, white=Sox2; blue=DAPI, Scale bars: 10 μm.
P1 floxP-tdTomato mice (The Jackson Laboratory) were used for (−30)GFP-Cre injection and P2 Atoh1-GFP mice (Dr. J Johnson, Southwestern Medical Center, University of Texas) were used for Cas9:sgRNA injection. Animals were used under protocols approved by the Massachusetts Eye & Ear Infirmary ALCUC committee. Mice were anesthetized by lowering their temperature on ice. Cochleostomies were performed by making an incision behind the ear to expose the cochlea. Glass micropipettes held by a micromanipulator were used to deliver the complex into the scala media, which allows access to inner ear hair cells. For delivery of (−30)GFP-Cre, 3 μL of 45 μM protein was mixed with 3 μL of either RNAiMAX or Lipofectamine 2000 and incubated at room temperature for 30 minutes prior to injection. Four mice were injected per treatment group. […]
5-10 days after injection, the mice were sacrificed and cochlea were harvested by standard protocols. […] To quantify the number of tdTomato positive cells after (−30)GFP-Cre or GFP negative cells after Cas9:sgRNA delivery, the total number of outer hair cells were counted in a region spanning 200 μm around the site of injection in the base turn of the cochlea. The efficiency of (−30)GFP-Cre-induced recombination or Cas9:sgRNA-induced genome modification was calculated as the percentage of outer hair cells that expressed tdTomato or that lost GFP expression. […]

[2] = tested on: cochlear inner hair cells, outer hair cells and supporting cells; type: in vivo
Procedure: 0.4 μL of 50 μM+36 GFP-Cre or aurein 1.2-+36 GFP-Cre were injected into the scala media. […] Inner hair cells (IHC), outer hair cells (OHC) and supporting cells in the sensory epithelium (SE) were imaged for the presence of tdTomato, which is only expressed following Cre-mediated recombination. Hair cells were labeled with antibodies against the hair-cell marker Myo7a.
P1-2 Gt(ROSA)26Sor^tm14(CAG-tdTomato)Hze mice were used for aurein 1.2-+36-GFP-Cre and +36-GFP-Cre injection. The Rosa26-tdTomato mice were from the Jackson Laboratory. Animals were used under protocols approved by the Massachusetts Eye & Ear Infirmary IACUC committee. Mice were anesthetized by hypothermia on ice. Cochleostomies were performed by making an incision behind the ear to expose the cochlea. Glass micropipettes held by a micromanipulator were used to deliver the complex into the scala media, which allows access to inner ear hair cells. The total delivery volume for every injection was 0.4 μL per cochlea and the release was controlled by a micromanipulator at the speed of 69 nL/min.
To quantify the number of tdTomato positive cells after aurein 1.2-+36-GFP-Cre and +36-GFP-Cre, we counted the total number of inner and outer hair cells in a region spanning 100 μm in the apex, middle, and base turn of the cochlea.
Both the hair cells (Myo7a+) and supporting cells (Myo7a−) were evaluated for td Tomato signal.

BSR.LNL.tdTomato cells [3] = test: ATP-dependent cell viability assay (CELLTITER-GLO); conditions: 1 μM, 48 h after treatment
Procedure: (§1) FIGS. 15A, 15B are graphs showing the efficacy and toxicity of recombinant expression fusions of aurein 1.2 (“E”) and citropin 1.3 (“U”). […] The percentage of tdTomato positive cells was determined by flow cytometry. Protein fusions were delivered at 125 nM, 250 nM, 500 nM, and 1 μM. […] Protein fusions were delivered at 125 nM, 250 nM, 500 nM, and 1 μM. […] Cells were treated with 250 nM protein for 4 h in serum-free media. Cells were washed and supplanted with full DMEM and incubated for 48 h. Error bars represent the standard deviation of three independent biological replicates.
(§2) Uptake and delivery assays for Cre fusion proteins were performed as previously described (Cronican, J. J.; et al. ACS Chemical Biology 2010, 5, 747). Briefly, proteins were diluted in serum-free DMEM and incubated on the cells in 48-well plates for 4 h at 37° C. Following incubation, the cells were washed three times with PBS+20 U/mL heparin. The cells were incubated a further 48 h in serum-containing media prior to trypsinization and analysis by flow cytometry. […] Toxicity for alanine scan mutational analysis was determined with LIVE/DEAD fixable far-red dead cell stain (Life Technologies) with 635 nm laser and 670/30 nm filter.
Next, the toxicity of each fusion protein was evaluated at a range of concentrations (125 nM to 1 μM) using an ATP-dependent cell viability assay at 48 h after treatment.

[4] = tested on: inner ear cell types (IHC, OHC, SC) of Rosa-tdT mouse; test: (+36)-GFP-aurein-Cre injection into P3 Rosa-tdT mouse inner ear by cochleostomy; type: in vivo; conditions: 50 μM
Procedure: FIGS. 11A-11E show the high efficiency of protein delivery mediated by aurein in the inner ear in vivo. […] FIG. 11E: In Opti-MEM injected control mice no tdT labeling was detected in any inner ear cells. Scale bars: 10 μm.
It was next tested whether Aurein, an antimicrobial peptide, in combination with s-GFP, can serve as an effective carrier to deliver functional proteins into mouse inner ear cell types with high efficiency. (+36)-GFP-aurein-Cre was injected with different concentrations into P3 Rosa-tdT mouse inner ear by cochleostomy in vivo. The tissues were harvested 5 days later for immunolabeling to identify tdT^+ inner ear cell types. […] At 22.5 μM, 58% of OHC and 75% of IHC, as well as 8% of SC were tdT^+. At the highest 50 μM, 96% of OHC, 88% of IHC and 19% of SC were tdT^+. Some spiral ganglion neurons were also tdT at 22.5 and 50 μM (FIGS. 11A-11E and FIG. 12).

mouse retina = conditions: +36 GFP-Cre alone; cited from earlier work
BSR.LNL.tdTomato cells [5] = test: Primary screen for cytosolic delivery of Cre recombinase (fluorescence image analysis); type: cell-based, hamster; conditions: for level of recombination of sortase-conjugated peptide-(+36 GFP)-Cre: 250 nM, primary screen
Procedure: Initial screen of 20 peptide-(+36 GFP)-Cre conjugated proteins. Cytosolic Cre delivery results in recombination and tdTomato expression. The percentage of tdTomato positive cells was determined by fluorescence image analysis. […] Cells were washed and supplanted with full DMEM and incubated for 48 h. Error bars represent the standard deviation of three independent biological replicates.
BSR.LNL.tdTomato cells were plated at 10,000 cells per well in black 384-well plates (Aurora Biotechnologies). […] Following incubation, the cells were washed three times with PBS+20 U/mL heparin. The cells were incubated a further 48 h in serum-containing media. Cells were fixed in 3% paraformaldehyde and stained with Hoescht 33342 nuclear dye. […] Images were exposed for 10 ms in the DAPI channel (Hoechst) and 500 ms in the dsRed channel (tdTomato). Image analysis was performed using the cell-scoring module of MetaXpress software (Molecular Devices). All nuclei were detected with a minimum width of 1 pixel, maximum width of 3 pixels, and an intensity of 200 gray levels above background. Positive cells were evaluated for uniform signal in the dsRed channel (minimum width of 5 pixels, maximum width of 30 pixels, intensity >200 gray levels above background, 10 μm minimum stained area). In total, nine images were captured and analyzed per well, and 16 wells were treated with the same fusion protein. The primary screen was completed in biological triplicate.
Because Cre recombinase must enter the cell, escape endosomes, enter the nucleus, and catalyze recombination to generate tdTomato fluorescence, this assay reflects the availability of active, non-endosomal recombinase enzyme that reaches the nucleus.
The reporter BSR.LNL.tdTomato cells were incubated with 250 nM of each peptide-(+36 GFP)-Cre protein in serum-free media.

[6] = tested on: glucocorticoid receptor (GR-mCherry) in HeLa cells; test: GR-mCherry translocation assay; type: cell-based; conditions: 1 μM for 30 min, HeLa cells expressing GR-mCherry
Procedure: One day prior to transfection 10,000 HeLa cells in 200 μL of DMEM (10% FBS, 1× Pen-Strep) were plated into single wells of a 96-well MATRICAL glass bottom microplate (MGB096-1-2-LG-L) and allowed to adhere overnight. The following day, cells were transfected with GRmCherry using LIPOFECTAMINE® 2000 technologies. Following transfection, cells were allowed to recover overnight in DMEM (+10% FBS). The following day, cells were treated with dexamethasone (Dex) or 1 μM Dex-protein conjugate in the presence or absence of inhibitor diluted into DMEM (without phenol red, +300 nM Hoescht33342). After 30 min, cells were washed twice with 200 μL of HEPES-Krebs-Ringer's (HKR) buffer (140 mM NaCl, 2 mM KCl, 1 mM CaCl2, 1 mM MgCl2, and 10 mM HEPES at pH 7.4), after which 100 μL of HKR buffer was overlaid onto the cells and images were acquired on a Zeiss Axiovert 200M epifluorescence microscope outfitted with Ziess AxiocammRM camera and an EXFO-Excite series 120 Hg arc lamp. The translocation ratio (the ratio of median […] intensity in the nuclear and surrounding regions) for individual cells was measured using CELLPROFILER® as described 36. […]
Although endosomal escape is widely considered to be the major bottleneck of cationic protein delivery (Sahay, G.; et al. Nature Biotechnology 2013, 31, 653), few assays quantify the ability of proteins to escape endosomes on a single-cell basis.

BSR.LNL.tdTomato cells [7] = test: Toxicity of aurein 1.2 variants fused to +36 GFP-Cre; type: cell-based, hamster; conditions: 250 nM
Source text: FIGS. 16A, 16B are graphs showing the activity and cytotoxicity of aurein 1.2 variants fused to +36 GFP-Cre (FIG. 16A). […] (FIG. 16B) Toxicity as determined by CELLTITERGLO (Promega) assay.

BSR.LNL.tdTomato cells [8] = test: Cre delivery assay with expressed fusion proteins (flow cytometry); type: cell-based, hamster; conditions: 250 nM, compared with unmutated aurein 1.2-+36 GFP-Cre
Procedure: as §1
as §2, with “cytometry. All flow cytometry were carried out on a BD Fortessa flow cytometer (Becton-Dickinson) using 530/30 nm and 610/20 nm filter sets.” for “cytometry.”

Substance: (−30)GFP-Cre: negatively supercharged GFP fused to Cre recombinase, SEQ ID NO: 4
- hair cells tdT-labeled [1]: ~30%
- stereocilia of tdTomato-positive outer hair cells ([1]; ten days after delivery, 23 μM in 50% RNAiMAX, P0 floxP-tdTomato mice): intact espin (Esp)-expressing stereocilia

Substance: +36 GFP-Cre: superpositively charged GFP fused to Cre recombinase, SEQ ID NO: 1
- Cre-mediated recombination in inner hair cells (IHC) ([2]; apex, 50 μM): 4.4%
- cell viability (BSR.LNL.tdTomato cells [3]): 85%
- tdT labeling of cochlear cell types [4]: very few IHC and HC were labeled with tdT
- recombination in mouse retina (mouse retina): modest levels of recombination
- hair cells tdT-labeled [1]: ~30%
- recombined cells with chloroquine (positive control) (BSR.LNL.tdTomato cells [5]; 250 nM protein incubated with 100 μM chloroquine): 48%
- cells expressing tdTomato (recombined cells) (BSR.LNL.tdTomato cells [5]; 250 nM protein, 4 h serum-free media, then 48 h): 4.5%

Substance: Arg8^Dex: canonical cell permeable peptide (SEQ ID NO: 102), dexamethasone-labeled positive control (RRRRRRRR; also: dexamethasone label)
- nuclear-to-cytoplasm translocation ratio (TR) [6]: 1.63

Substance: GLFDIIKKIAEAF [S12A, aurein 1.2 variant expressed as fusion with +36 GFP-Cre]
- toxicity of aurein 1.2 variants (BSR.LNL.tdTomato cells [7]): increased toxicity
- recombination efficiency of aurein 1.2 variants fused to +36 GFP-Cre (BSR.LNL.tdTomato cells [8]): potentially improved overall recombination efficiency

Substance: GLFDIIKKIAESF [aurein 1.2]
- potency of Cre delivery into cochlear hair cells when fused with aurein 1.2 vs absence of the peptide ([2]; live mice): > 20 fold
- level of recombination of sortase-conjugated peptide-(+36 GFP)-Cre (BSR.LNL.tdTomato cells [5]): highest level of recombination

Substance: GLFDIIKKVASVIGGL (listed as Litoria citropa) [citropin 1.3]
- level of recombination of sortase-conjugated peptide-(+36 GFP)-Cre (BSR.LNL.tdTomato cells [5]): moderate level of recombination

Substance: GLFDIIKRIAESF [K8R, aurein 1.2 variant expressed as fusion with +36 GFP-Cre]
- toxicity of aurein 1.2 variants (BSR.LNL.tdTomato cells [7]): increased toxicity
- recombination efficiency of aurein 1.2 variants fused to +36 GFP-Cre (BSR.LNL.tdTomato cells [8]): potentially improved overall recombination efficiency
